The values that follow come from patent US9487462B2, “Inhibitors of matrix metalloproteinases” (PharmaHungary 2000 Kft., priority 2010, dated 2016).

Data set [1] in a line: Cytotoxicity, alamarBlue viability, HCT116. Format: cell-based. Conditions: human, HCT116 colon tumor cells, 48 hours incubation, read-out: HCT116 LC50. The protocol: (§1) Beside the inhibitory effect on MMPs we tested the cytotoxicity of the selected compounds. These measurements were done in parallel on two cell lines. One of them was the healthy human fibroblast cell line MRC-5 while the other was the human colon tumor cell line HCT116. The viability of the cells was monitored using alamarBlue. This dye is reduced by the cells resulting in an increased fluorescent signal which is proportional to the number of living cells. Cells were incubated with the dilutions of the tested compounds for 48 hours then alamarBlue was added to them for 4 hours. After that the fluorescence changes were detected using excitation at 540 nm and emission wavelength of 590 nm by a Wallac 1420 Microplate Reader. IC50 values were determined for the compounds using six concentrations and duplicate points for each concentration.

Data set [2] can be described thus: Cytotoxicity, alamarBlue viability, MRC-5. In kind it is cell-based. Conditions: human, MRC-5 fibroblast cells, 48 hours incubation, read-out: MRC-5 LC50. The procedure: as §1
Data set [3] addresses MMP9 (Homo sapiens, UniProt P14780). Put plainly: MMP activity assay (fluorogenic substrate), MMP9 catalytic domain. The following applies: Table 2. In kind it is biochemical. The procedure:
(§2) MMP activity assays were conducted as follows: MMP2, MMP9, MMP13 catalytic domain was expressed in E. coli in form of inclusion bodies followed by refolding and purification.
(§3) The Protocol of the Activity Assay:
(§4) Stock solution of substrate (Mca-Lys-Pro-Leu-Gly-Leu-Dpa-Ala-Arg-NH2) was prepared in DMSO at a concentration of 6 mM. Assays were performed in an assay buffer (50 mM Tris pH 7.5, 300 mM NaCl, 10 μM ZnSO4, 5 mM CaCl2, 0.005% Brij-35). The final DMSO concentration in all assays was 1.0%. […] The assays were carried out at 37° C. The fluorescence changes, resulting from the substrate cleavage, were detected using excitation at 340 nm and emission wavelength of 405 nm using a Wallac 1420 Microplate Reader. The reaction mixtures were preincubated with the inhibitors for 30 minutes. The reactions were started by the addition of MMP substrate, and the fluorescence intensity changes were measured after 60 minutes. The obtained fluorescence values were normalized and % inhibition values calculated. Dose response curves were determined from 6 concentration points using three fold dilution steps, each concentration point was determined in duplicate. IC50 values were calculated from the dose response curves.

In data set [4] the target is MMP13 (Homo sapiens (Human), UniProt P45452). Description: MMP activity assay (fluorogenic substrate), MMP13 catalytic domain. In kind it is biochemical. The following applies: Table 2; read-out: MMP13 IC50. The procedure:
as §2, §3
as §4, with “The fluorescence changes, resulting from the substrate cleavage, were detected using excitation at 340 nm and emission wavelength of 405 nm using a Wallac 1420 Microplate Reader.” left out

Data set [5] concerns the target MMP2 (Homo sapiens, UniProt P08253). Description: MMP activity assay (fluorogenic substrate), MMP2 catalytic domain. Format: biochemical. Conditions: Table 2; read-out: MMP2 IC50. The procedure:
as §2, §3, §4

Data set [6] has as its target MMP1 (Homo sapiens (Human), UniProt P03956). Put plainly: MMP activity assay (fluorogenic substrate), MMP1. In kind it is biochemical. Conditions: Table 2; read-out: MM1 IC50.
Data set [7] concerns neonatal rat cardiac myocytes. Put plainly: Cytoprotective effect in cardiac myocytes subjected to hypoxia and reoxygenation. Format: cell-based. The protocol:
Neonatal rat hearts were digested and isolated cardiomyocytes were plated onto 24-well plastic plates at […]. The cells were maintained at 37° C. in a humidified atmosphere of 5% CO2 and 95% air in a CO2 incubator until confluence was reached. Cultures at day 3 were used for treatments. Cells were kept under normoxic or simulated ischemic conditions, i.e. the growth medium was changed to a normoxic or hypoxic solution and the cells were incubated under 95% air and 5% CO2 or 95% N2 and 5% CO2 at 37° C. for 4 h, respectively as described in detail (Gorbe A, Giricz Z, Szunyog A, Csont T, Burley D S, Baxter G F, Ferdinandy P. Role of cGMP-PKG signaling in the protection of neonatal rat cardiac myocytes subjected to simulated ischemia/reoxygenation. Basic Res Cardiol. 105:643-650, 2010). The positive control ilomastate (0.5 microM) and MMP-inhibitors at different effective concentrations (EC 5, EC 10, EC 20, and EC50 as determined in previous test examples) were applied during normoxia or simulated ischemia and also during reoxygenation. The vehicle was DMSO. Cell viability was determined after Calcein A M fluorescent staining as described (Karliner J S, Honbo N, Summers K, Gray M O, Goetzl E J. The lysophospholipids sphingosine-1-phosphate and lysophosphatidic acid enhance survival during hypoxia in neonatal rat cardiac myocytes. J Mol Cell Cardiol, 33:1713-7, 2001). Total cell count was determined after digitonin treatment to permeabilize the cells by using propidium iodine fluorescent staining (Roy S S, Hajnoczky G. Calcium, mitochondria and apoptosis studied by fluorescence measurements. Methods. 46:213-223, 2008).

Structures can show the parent of a compound that is named as a salt. A value given as a limit tells only on which side of the number the result lay.

Sequence of MMP1 (P03956 100-469, species assumed): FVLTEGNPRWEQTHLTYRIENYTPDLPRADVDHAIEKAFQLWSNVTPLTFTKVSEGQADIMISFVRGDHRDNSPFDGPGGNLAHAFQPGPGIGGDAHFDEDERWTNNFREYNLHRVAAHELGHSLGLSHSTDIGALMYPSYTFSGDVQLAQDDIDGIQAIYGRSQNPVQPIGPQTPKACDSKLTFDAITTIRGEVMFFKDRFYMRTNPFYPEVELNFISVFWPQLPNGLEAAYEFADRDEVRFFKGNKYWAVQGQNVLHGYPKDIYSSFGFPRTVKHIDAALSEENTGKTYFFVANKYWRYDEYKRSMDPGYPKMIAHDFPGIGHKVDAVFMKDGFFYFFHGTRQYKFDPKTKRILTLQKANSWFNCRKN

As for `O=C(O)c1csc(CN(Cc2ccc(OCc3ccccc3)cc2)CC(c2ccccc2)c2ccccc2)n1` [Compound 6, 2-[({[4-(Benzyloxy)phenyl]methyl}(2,2-diphenylethyl)amino)methyl]-1,3-thiazole-4-carboxylic acid], the CC50 at 48 h turned out to be 3.5 µM in data set [1] and 18 µM in data set [2].

As to `O=C(O)c1csc(CN(Cc2ccc(F)cc2)Cc2ccc(OCc3ccncc3)cc2)n1` [Compound 9, 2-({[(4-Fluorophenyl)methyl]({[4-(pyridin-4-ylmethoxy)phenyl]methyl})amino}methyl)-1,3-thiazole-4-carboxylic acid], the values for the CC50 at 48 h in data set [1] and in data set [2] were 4.7 µM and 12 µM, respectively. Further, the IC50 was 8.8 µM in data set [3], 1.24 µM in data set [4], 8 µM in data set [5] and 47 µM in data set [6].

For `CCOC(=O)c1csc(CN(Cc2ccncc2)Cc2ccc(OCc3ccccc3)cc2)n1` [Compound 20, Ethyl 2-[({[4-(benzyloxy)phenyl]methyl}(pyridin-4-ylmethyl)amino)methyl]-1,3-thiazole-4-carboxylate], the CC50 at 48 h in data set [1] was 16 µM; in data set [2], 13 µM. The IC50 in data set [3] is more than 500 µM; in data set [4] it was 7.5 µM; in data set [5] it was more than 500 µM; in data set [6], 325 µM.

With `O=C(O)c1c[nH]c(CNCc2ccc(OCc3cccnc3)cc2)n1` [Compound 31 HCl, 2-[({[4-(Pyridin-3-ylmethoxy)phenyl]methyl}amino)methyl]-1H-imidazole-4-carboxylic acid], the “Cytoprotective effect, % cell survival as compared to vehicle DMSO” value (shortened to “Cytoprotective effect, % cell survival”) in data set [7] (normoxia, EC5 concentration 0.25 microM) is 108 ± 4%; in data set [7] (normoxia, EC10 concentration 1.0 microM), 103 ± 3%; in data set [7] (normoxia, EC20 concentration 4.0 microM), 106 ± 4%; in data set [7] (normoxia, EC50 concentration 16.0 microM), 103 ± 3%; in data set [7] (simulated ischemia, EC5 concentration 0.25 microM), 116 ± 8 %; in data set [7] (simulated ischemia, EC10 concentration 1.0 microM), 107 ± 3%. For the same compound, the “Cytoprotective effect, % cell survival” value in data set [7] (simulated ischemia, EC20 concentration 4.0 microM) was 126 ± 2 %; in data set [7] (simulated ischemia, EC50 concentration 16.0 microM), 127 ± 3 %.

With `FC(F)(F)c1cnc(-c2ccccc2)[nH]1` [Compound 39, 2-Phenyl-5-trifluoromethyl-1H-imidazole], the IC50 is more than 500 µM in data set [3], 340 µM in data set [4] and more than 500 µM in data set [5].

On to `CCOC(=O)c1csc(CN(Cc2ccc(F)cc2)Cc2ccc(OCc3cccnc3)cc2)n1` [Compound 2, Ethyl 2-({[(4-fluorophenyl)methyl]({[4-(pyridin-3-ylmethoxy)phenyl]methyl})amino}methyl)-1,3-thiazole-4-carboxylate], for which the CC50 at 48 h in data set [1] is 0.5 µM; in data set [2], 0.8 µM. Besides, the IC50 in data set [3] turned out to be 163 µM; in data set [4], 3.7 µM; in data set [5], 105 µM; in data set [6], 185 µM.

Turning to `O=C(c1cnc(CCc2ccccc2)[nH]1)N1CCCC1` [Compound 38, (2-Phenethyl-3H-imidazol-4-yl)-pyrrolidin-1-yl-methanone], the results for the IC50 in data set [3], in data set [4] and in data set [5] were 80 µM, 54 µM and 62 µM, respectively.

For the compound `O=C(O)c1csc(CN(Cc2ccc(OCc3cccnc3)cc2)Cc2cccc(F)c2)n1` [Compound 8, 2-[({[4-(Pyridin-3-ylmethoxy)phenyl]methyl}[(3-fluorophenyl)methyl]amino)methyl]-1,3-thiazole-4-carboxylic acid], the “Cytoprotective effect, % cell survival” value in data set [7] (normoxia, EC5 concentration 0.7 microM) is recorded as 99 ± 4%; in data set [7] (normoxia, EC10 concentration 2.0 microM) it was 103 ± 4%; in data set [7] (normoxia, EC20 concentration 6.0 microM), 119 ± 5 %; in data set [7] (normoxia, EC50 concentration 18.0 microM) it was 127 ± 4 %; in data set [7] (simulated ischemia, EC5 concentration 0.7 microM), 117 ± 12%; in data set [7] (simulated ischemia, EC10 concentration 2.0 microM), 120 ± 8%. In addition, the “Cytoprotective effect, % cell survival” value in data set [7] (simulated ischemia, EC20 concentration 6.0 microM) is reported as 144 ± 25%; in data set [7] (simulated ischemia, EC50 concentration 18.0 microM) it was 107 ± 8%.

As for `O=C(O)c1csc(CN(Cc2ccncc2)Cc2ccc(OCc3ccccc3)cc2)n1` [Compound 13, 2[({[4-(Benzyloxy)phenyl]methyl}(pyridin-4-ylmethyl)amino)methyl]-1,3-thiazole-4-carboxylic acid], the CC50 at 48 h in data set [1] turned out to be 20 µM; in data set [2], 11 µM. Further, the half-inhibitory concentration (IC50) in data set [3] was more than 500 µM; in data set [4], 1.5 µM; in data set [5], 54 µM; in data set [6], 115 µM.

For `CCOC(=O)c1csc(CN(Cc2ccc(OCc3ccncc3)cc2)Cc2cccnc2)n1` [Compound 19, Ethyl 2-{[(pyridin-3-ylmethyl)({[4-(pyridin-4-ylmethoxy)phenyl]methyl})amino]methyl}-1,3-thiazole-4-carboxylate], the CC50 at 48 h in data set [1] stood at 7.3 µM; in data set [2], 27 µM. Also, the IC50 in data set [3] was more than 500 µM; in data set [4], 19 µM; in data set [5], 200 µM; in data set [6], 190 µM.

Turning to `O=C(O)c1cnc(CCc2ccccc2)[nH]1` [Compound 36, 2-Phenethyl-3H-imidazole-4-carboxylic acid], the IC50 in data set [3] was more than 500 µM; in data set [4] it was 300 µM; in data set [5], more than 500 µM.

Regarding `O=C(O)c1cnc(-c2ccccc2)[nH]1` [Compound 40, 2-Phenyl-3H-imidazole-4-carboxylic acid], the figures for the half-inhibitory concentration (IC50) in data set [3], in data set [4] and in data set [5] were 250 µM, 165 µM and 137 µM, respectively.

Take `CCOC(=O)c1csc(CN(Cc2ccc(F)cc2)Cc2ccc(OCc3ccccc3)cc2)n1` [Compound 11, Ethyl 2-[({[4-(benzyloxy)phenyl]methyl}[(4-fluorophenyl)methyl]amino)methyl]-1,3-thiazole-4-carboxylate]: the CC50 at 48 h in data set [1] turned out to be 5.8 µM; in data set [2], 12 µM.

Consider `FC(F)(F)c1cnc(CCc2ccccc2)[nH]1` [Compound 35, 2-Phenethyl-5-trifluoromethyl-1H-imidazole], for which the concentration for half-maximal inhibition (IC50) in data set [3] was more than 500 µM; in data set [4] it was 500 µM; in data set [5], more than 500 µM.

For the compound `COC(=O)c1cnc(CCc2ccccc2)[nH]1` [Compound 37, 2-Phenethyl-3H-imidazole-4-carboxylic acid methyl ester], the IC50 in data set [3] was 145 µM; in data set [4], more than 500 µM; in data set [5], 66 µM.
